According to US9737075B2, “Synergistic benzoxaborole-containing anti-fungicidal composition” (The Penn State Research Foundation, priority 2015, dated 2017):
In brackets after ≈: the same amount, converted by molar mass. Where two headings read alike, the source gives them in different places.

Assays:
Type in all cases: cell-based
[1] = tested on: Mycosphaerella zeae-maydis; test: Broth microdilution MIC of individual antifungals; details: individual antifungal, 25% PDB, about 25° C., 72 hours, range over N independent triplicate studies; for MIC: Didymella maydis
[2] = tested on: Aureobasidium pullulans; test: Broth microdilution MIC of individual antifungals; details: individual antifungal, 25% PDB, about 25° C., 72 hours, range over N independent triplicate studies; for MIC: read-out: Independent MIC
[3] = tested on: Aspergillus flavus; test: Broth microdilution MIC of individual antifungals; details: individual antifungal, 25% PDB, about 25° C., 72 hours, range over N independent triplicate studies
[4] = tested on: Aspergillus fumigatus; test: Broth microdilution MIC of individual antifungals; details: individual antifungal, 25% PDB, about 25° C., 72 hours, range over N independent triplicate studies; for MIC: read-out: Independent MIC
[5] = tested on: Aspergillus niger; test: Broth microdilution MIC of individual antifungals; details: individual antifungal, 25% PDB, about 25° C., 72 hours, range over N independent triplicate studies; for MIC: read-out: Independent MIC
[6] = tested on: Sclerotinia homoeocarpa; test: Broth microdilution MIC of individual antifungals; details: Sclerotinia homoeocarpa, individual antifungal, 25% PDB, about 25° C., 72 hours, range over N independent triplicate studies; for MIC: Clarireedia homoeocarpa, read-out: Independent MIC
[7] = tested on: Botrytis cinerea 10-1728; test: Broth microdilution MIC of individual antifungals; details: Botrytis cinerea 10-1728, individual antifungal, 25% PDB, about 25° C., 72 hours, range over N independent triplicate studies; for MIC: 101728, read-out: Independent MIC
[8] = tested on: Botrytis cinerea B17; test: Broth microdilution MIC of individual antifungals; details: Botrytis cinerea B17, individual antifungal, 25% PDB, about 25° C., 72 hours, range over N independent triplicate studies
[9] = tested on: Fusarium graminearum; test: microbe, parasite or virus in culture; details: for MIC: 72 h, read-out: Independent MIC
[10] = tested on: Fusarium verticillioides; test: Broth microdilution MIC of individual antifungals; details: individual antifungal, 25% PDB, about 25° C., 72 hours, range over N independent triplicate studies
[11] = tested on: Fusarium oxysporum ST33; test: Broth microdilution MIC of individual antifungals; details: individual antifungal, 25% PDB, about 25° C., 72 hours, range over N independent triplicate studies
[12] = tested on: Fusarium oxysporum f. sp. lycopersici; test: Broth microdilution MIC of individual antifungals; details: individual antifungal, 25% PDB, about 25° C., 72 hours, range over N independent triplicate studies
[13] = tested on: Stachybotrys chartarum; test: Broth microdilution MIC of individual antifungals; details: individual antifungal, 25% PDB, about 25° C., 72 hours, range over N independent triplicate studies
[14] = tested on: Pythium aphanodermatum; test: Broth microdilution MIC of individual antifungals; details: individual antifungal, 25% PDB, about 25° C., 72 hours, range over N independent triplicate studies
[15] = tested on: Magnaporthe grisea; test: microbe, parasite or virus in culture; details: for MIC: Pyricularia oryzae, 72 h, read-out: Independent MIC
[16] = tested on: Phytophthora pini; test: Broth microdilution MIC of individual antifungals; details: individual antifungal, 25% PDB, about 25° C., 72 hours, range over N independent triplicate studies
[17] = tested on: Penicillium chrysogenum; test: Broth microdilution MIC of individual antifungals; details: individual antifungal, 25% PDB, about 25° C., 72 hours, range over N independent triplicate studies; for MIC: read-out: Independent MIC
[18] = tested on: Mucor sp.; test: Broth microdilution MIC of individual antifungals; details: individual antifungal, 25% PDB, about 25° C., 72 hours, range over N independent triplicate studies
[19] = tested on: Alternaria solani; test: Broth microdilution MIC of individual antifungals; details: individual antifungal, 25% PDB, about 25° C., 72 hours, range over N independent triplicate studies
[20] = tested on: Candida albicans; test: Broth microdilution MIC of individual antifungals; details: individual antifungal, 25% PDB, about 25° C., 72 hours, range over N independent triplicate studies
[21] = tested on: Fusarium solani f. sp. pisi (MP VI); test: Broth microdilution MIC of individual antifungals; details: Fusarium solani f. sp. pisi (MP VI); individual antifungal, 25% PDB, about 25° C., 72 hours; range over N independent triplicate studies
[22] = tested on: Rhizopus sp.; test: Broth microdilution MIC of individual antifungals; details: Rhizopus sp.; individual antifungal, 25% PDB, about 25° C., 72 hours; range over N independent triplicate studies
[23] = tested on: Colletotrichum orbiculare; test: Broth microdilution MIC of individual antifungals; details: individual antifungal, 25% PDB, about 25° C., 72 hours, range over N independent triplicate studies
[24] = tested on: Rhizoctonia solani; test: Broth microdilution MIC of individual antifungals; details: individual antifungal, 25% PDB, about 25° C., 72 hours, range over N independent triplicate studies

Row | Compound | MIC [1] [mg/L] | MIC [2] [mg/L] | MIC [4] [mg/L] | MIC [5] [mg/L] | MIC [6] [mg/L] | MIC [7] [mg/L] | MIC ([9]; Fusarium graminearum) [mg/L] | MIC [14] [mg/L] | MIC [15] [mg/L] | MIC [16] [mg/L] | MIC [17] [mg/L] | Independent MIC [1] | Independent MIC [19] | Independent MIC [3] | Independent MIC [4] [mg/L] | Independent MIC [5] | Independent MIC [6] | Independent MIC [7] | Independent MIC [20] [mg/L] | Independent MIC [10] | further results
1 | c1ccc2[nH]c(-c3cscn3)nc2c1 [Thiabendazole] | 12.5 to 25 | 0.2 to 0.39 | 12.5 to 50 | 12.5 to 50 | 20 to 25 | 200 to 400 | 1.5 to 3.12 (≈ 7.45 to 15.5 µM) | 200 to 400 | 1.56 to 3.13 (≈ 7.75 to 15.6 µM) | 100 | 0.375 to 0.39 | – | – | – | – | – | – | – | – | – | MIC ([3]; read-out: Independent MIC): 12.5 to 40 mg/L; MIC ([8]; read-out: Independent MIC): 50 mg/L; MIC ([10]; read-out: Independent MIC): 3 to 6.25 mg/L; MIC [11]: 25 to 80 mg/L; MIC [12]: 200 to 400 mg/L; MIC ([13]; read-out: Independent MIC): 25 to 30 mg/L
2 | COC(=O)NC(=S)Nc1ccccc1NC(=S)NC(=O)OC [Thiophanate-Methyl, thiophanate-methyl] | 25 to 50 | 0.1 to 0.39 | 50 to 100 | 25 | 0.5 to 1 | 200 to 400 | 100 to 400 (≈ 292 to 1170 µM) | 400 | 25 to 50 (≈ 73 to 146 µM) | 25 | 12.5 | – | – | – | – | – | – | – | – | – | MIC [18]: 200 to 400 mg/L
3 | mancozeb | – | – | – | – | – | – | – | – | – | – | – | (3.125-8) ^ μg/mL | (10-12.5) μg/mL | (6.25-25)^ μg/mL | 100 | (25-50) μg/mL | (8-20) μg/mL | 3.125 mg/L | 50 | (4-8) μg/mL | Independent MIC [2]: (6.25-12.5) μg/mL; Independent MIC [8]: (32-64) μg/mL; Independent MIC ([9]; Fusarium graminearum, individual antifungal, 25% PDB, about 25° C., 72 hours, range over N independent triplicate studies): 12.5 mg/L; Independent MIC [21]: 100 mg/L; Independent MIC [11]: (32-80) μg/mL; Independent MIC [12]: (6-12.5) μg/mL; Independent MIC [13]: (3.125-6.25) μg/mL; Independent MIC [22]: (25-80) μg/mL; Independent MIC [14]: (28-50) μg/mL; Independent MIC [18]: (50-100) μg/mL; Independent MIC ([15]; Magnaporthe grisea, individual antifungal, 25% PDB, about 25° C., 72 hours, range over N independent triplicate studies): 6.25 mg/L; Independent MIC [16]: 0.39 mg/L; Independent MIC [17]: (6.25-12.5) μg/mL; Independent MIC [23]: (6.25-12.5) μg/mL
4 | maneb | – | – | – | – | – | – | – | – | – | – | – | 25 mg/L | (25-50) μg/mL | (12.5-25)^ μg/mL | 3.125 | (50-100) μg/mL | 1.56 mg/L | (12.5-40)^ μg/mL | 1.56 | 6.25 mg/L | Independent MIC [9]: 12.5 mg/L; Independent MIC [21]: 25 mg/L; Independent MIC [22]: (50-100) μg/mL; Independent MIC [18]: (25-50) μg/mL; Independent MIC [15]: 1.56 mg/L; Independent MIC [16]: 3.125 mg/L; Independent MIC [24]: (50-100) μg/mL; Independent MIC [17]: 25 mg/L; Independent MIC [23]: (3.13-6.25) μg/mL
